This note sets out measurements from US5266463A, “Highly sensitive assay method for L-carnitine and composition for practicing same” (Asahi Kasei Kogyo Kabushiki Kaisha, priority 1990, dated 1993).

Where “and” joins values, the source holds several entries; their conditions need not be identical. Equal values may be shown once. Read-outs that look alike come from different tables or passages of the source.

This assay deals with L-carnitine dehydrogenase (EC 1.1.1.108) produced by Alcaligenes sp. No. 981 FERM BP-2570. As to the kind of experiment: Km-value determination of L-carnitine dehydrogenase (diaphorase/NBT coupled reaction). Format: biochemical. The text has this: The L-carnitine dehydrogenase used in the composition for assay of L-carnitine according to the present invention can be an enzyme having reactivity on a substrate of L-carnitine together with a suitable coenzyme NAD or thio-NAD. Its suitability can be confirmed by using the said coenzyme and substrate. L-carnitine dehydrogenase produced by Alcaligenes sp. No. 981 (product of Toyo Jozo Co.) has a relative activity of approx. 15% when coenzyme thio-NAD is used, as compared to use of NAD.
Km-value for NAD is measured in various concentrations of NAD^* in a reaction mixture of:
100 mM Tris-HCl buffer (pH 9.0)
5U diaphorase (Toyo Jozo Co.)
0.025% NBT (Wako Pure Chem. Co.)
1% polyoxyethylene (20) sorbitan monooleate (80) (Wako Pure Chem. Co.) and
In the reaction mixture, 50 mM L-carnitine is replaced by 1 mM NAD , and the concentration of L-carnitine is varied to measure the Km-value of L-carnitine.
The results are as shown above.

Take `NC(=S)c1ccc[n+]([C@@H]2O[C@H](COP(=O)([O-])OP(=O)(O)OC[C@H]3O[C@@H](n4cnc5c(N)ncnc54)[C@H](O)[C@@H]3O)[C@@H](O)[C@H]2O)c1` [thio-NAD, thionicotinamide adenine dinucleotide]: under “coenzyme thio-NAD, under the same conditions as NAD, read-out: Km-value (thio-NAD)”, the Km (in general, the concentration of substrate that gives half-maximal velocity) came to 400 µM. Regarding `C[N+](C)(C)C[C@H](O)CC(=O)[O-]` [L-carnitine], the Km (L-carnitine concentration varied, 1 mM NAD, 100 mM Tris-HCl buffer (pH 9.0), diaphorase, NBT, read-out: Km-value (L-carnitine)) is 9300 µM. Take `NC(=O)c1ccc[n+]([C@@H]2O[C@H](COP(=O)([O-])OP(=O)(O)OC[C@H]3O[C@@H](n4cnc5c(N)ncnc54)[C@H](O)[C@@H]3O)[C@@H](O)[C@H]2O)c1` [NAD, nicotinamide adenine dinucleotide]: the Km (NAD concentration varied, 50 mM L-carnitine, 100 mM Tris-HCl buffer (pH 9.0), diaphorase, NBT, read-out: Km-value (NAD)) was 140 µM and 141 µM.
